Target: T1, Cdk2(2-298) (Homo sapiens, UniProt P24941)
T1 construct: Biotinylated N-terminal avi-tagged Cdk2(2-298) or Cdk1(1-297) was immobilized
Assay: Surface Plasmon Resonance (SPR) compound interaction, Biacore 8K
Assay type: binding
Details: single-cycle kinetics (SCK, "S"), dissociation 1800 sec, read-out: Activity rating (KD)
Procedure: Compound interaction was profiled using a Biacore 8K instrument (Cytiva). Biotinylated N-terminal avi-tagged Cdk2(2-298) or Cdk1(1-297) was immobilized on a series S sensor Chip SA at a capture level between 2500 RU and 3000 RU (Cdk2) or 7000 RU (Cdk1) in buffer (25 mM HEPES, 150 mM NaCl, 0.05% Tween20, pH 7.5). A compound dilution plate (8 concentrations, 3-fold dilution) in DMSO was prepared (100× assay concentration). From this plate, compound DMSO stock solution was transferred into buffer, yielding a final DMSO concentration of 1% in assay. The remaining buffer was supplemented with 1% DMSO. Compounds were injected in a series of increasing concentrations in multi-cycle kinetics (MCK, “M”) or single-cycle kinetics (SCK, “S”) mode at a flow rate of 30 μl/min for 120 sec and dissociation was profiled for 180 sec (MCK) or 1800 sec (SCK). Data were analysed using Biacore Insight Evaluation Software (Cytiva).

Compound	Kd
Cc1cc(C)c(S(=O)(=O)Nc2ccc(Oc3ccncc3-c3ccnc(N[C@H]4CC[C@H](N)CC4)n3)c(F)c2)c(C)c1 [Compound 55, N-[4-[[3-[2-[(1r,4r)(4-Aminocyclohexyl)amino]pyrimidin-4-yl]-4-pyridyl]oxy]-3-fluorophenyl] 2,4,6-trimethylbenzenesulfonamide]	100 to 1000 nM
N[C@H]1CC[C@H](Nc2nccc(-c3cnccc3Oc3ccc(NS(=O)(=O)c4cccc5nccnc45)cc3F)n2)CC1 [Compound 56, N-[4-[[3-[2-[(1r,4r)(4-Aminocyclohexyl)amino]pyrimidin-4-yl]-4-pyridyl]oxy]-3-fluorophenyl] quinoxalin-5-ylsulfonamide]	100 to 1000 nM
N[C@H]1CC[C@H](Nc2nccc(-c3cnccc3Oc3ccc(NS(=O)(=O)c4cccc5c4CCCC5)cc3F)n2)CC1 [Compound 57]	100 to 1000 nM
N[C@H]1CC[C@H](Nc2nccc(-c3cnccc3Oc3ccc(NS(=O)(=O)c4cc(Cl)c(Br)cc4F)cc3F)n2)CC1 [Compound 58, N-[4-[[3-[2-[(1r,4r)(4-Aminocyclohexyl)amino]pyrimidin-4-yl]-4-pyridyl]oxy]-3-fluorophenyl] 4-bromo-5-chloro-2-fluorobenzenesulfonamide]	11 to 100 nM
O=S(=O)(Nc1ccc(Oc2ccncc2-c2ccnc(N[C@H]3CCCNC3)n2)c(F)c1)c1ccccc1 [Compound 59, N-[3-Fluoro-4-[[3-[2-[[(3S)-3-piperidyl]amino]pyrimidin-4-yl]-4-pyridyl]oxy]phenyl] benzenesulfonamide]	11 to 100 nM
N[C@H]1CC[C@H](Nc2nccc(-c3cnccc3Oc3cc(Cl)c(NS(=O)(=O)C4CC4)cc3F)n2)CC1 [Compound 60, N-[4-[[3-[2-[(1r,4r)(4-Aminocyclohexyl)amino]pyrimidin-4-yl]-4-pyridyl]oxy]-2-chloro-5-fluorophenyl] cyclopropylsulfonamide]	1000 to 5000 nM
N[C@H]1CC[C@H](Nc2nccc(-c3cnccc3Oc3ccc(NS(=O)(=O)c4ccccc4)c(Cl)c3)n2)CC1 [Compound 61, N-[4-[[3-[2-[(1r,4r)(4-Aminocyclohexyl)amino]pyrimidin-4-yl]-4-pyridyl]oxy]-2-chiorophenyl] benzenesulfonamide]	100 to 1000 nM
N[C@H]1CC[C@H](Nc2nccc(-c3cnccc3Oc3ccc(NS(=O)(=O)c4ccccc4)c(Br)c3)n2)CC1 [Compound 62, N-[4-[[3-[2-[(1r,4r)(4-Aminocyclohexyl)amino]pyrimidin-4-yl]-4-pyridyl]oxy]-2-bromophenyl] benzenesulfonamide]	100 to 1000 nM
N[C@H]1CC[C@H](Nc2nccc(-c3cnccc3Oc3cc(Cl)c(NS(=O)(=O)c4ccccc4)c(Cl)c3)n2)CC1 [Compound 63, N-[4-[[3-[2-[(1r,4r)(4-Aminocyclohexyl)amino]pyrimidin-4-yl]-4-pyridyl]oxy]-2,6-dichlorophenyl] benzenesulfonamide]	1000 to 5000 nM
N[C@H]1CC[C@H](Nc2nccc(-c3cnccc3Oc3ccc(NS(=O)(=O)c4ccccc4F)cc3F)n2)CC1 [Compound 64, N-[4-[[3-[2-[(1r,4r)(4-Aminocyclohexyl)amino]pyrimidin-4-yl]-4-pyridyl]oxy]-3-fluorophenyl] 2-fluorobenzenesulfonamide]	≤ 10 nM
N[C@H]1CC[C@H](Nc2nccc(-c3cnccc3Oc3ccc(NS(=O)(=O)c4ccccc4I)cc3F)n2)CC1 [Compound 65, N-[4-[[3-[2-[(1r,4r)(4-Aminocyclohexyl)amino]pyrimidin-4-yl]-4-pyridyl]oxy]-3-fluorophenyl] 2-iodobenzenesulfonamide]	≤ 10 nM
CC(C)(C)c1ccccc1S(=O)(=O)Nc1ccc(Oc2ccncc2-c2ccnc(N[C@H]3CC[C@H](N)CC3)n2)c(F)c1 [Compound 66, N-[4-[[3-[2-[(1r,4r)(4-Aminocyclohexyl)amino]pyrimidin-4-yl]-4-pyridyl]oxy]-3-fluorophenyl] 2-tert-butylbenzenesulfonamide]	100 to 1000 nM
N#Cc1ccccc1S(=O)(=O)Nc1ccc(Oc2ccncc2-c2ccnc(N[C@H]3CC[C@H](N)CC3)n2)c(F)c1 [Compound 67, N-[4-[[3-[2-[(1r,4r)(4-Aminocyclohexyl)amino]pyrimidin-4-yl]-4-pyridyl]oxy]-3-fluorophenyl] 2-cyanobenzenesulfonamide]	≤ 10 nM
N[C@H]1CC[C@H](Nc2nccc(-c3cnccc3Oc3ccc(NS(=O)(=O)C4CCCCC4)cc3F)n2)CC1 [Compound 68, N-[4-[[3-[2-[(1r,4r)(4-Aminocyclohexyl)amino]pyrimidin-4-yl]-4-pyridyl]oxy]-3-fluorophenyl] cyclohexylsulfonamide]	100 to 1000 nM
N[C@H]1CC[C@H](Nc2nccc(-c3cnccc3Oc3ccc(NS(=O)(=O)c4cccc5ccccc45)cc3F)n2)CC1 [Compound 69, N-[4-[[3-[2-[(1r,4r)(4-Aminocyclohexyl)amino]pyrimidin-4-yl]-4-pyridyl]oxy]-3-fluorophenyl] naphthalene-1-sulfonamide]	11 to 100 nM
O=S(=O)(Nc1ccc(Oc2ccncc2-c2ccnc(N[C@H]3CCCNC3)n2)c(F)c1)c1cccc2ccccc12 [Compound 70, N-[3-Fluoro-4-[[3-[2-[[(3S)-3-piperidyl]amino]pyrimidin-4-yl]-4-pyridyl]oxy]phenyl] naphthalene-1-sulfonamide]	≤ 10 nM
CCc1ccccc1S(=O)(=O)Nc1ccc(Oc2ccncc2-c2ccnc(N[C@H]3CC[C@H](N)CC3)n2)c(F)c1 [Compound 71, N-[4-[[3-[2-(1r,4r)[(4-Aminocyclohexyl)amino]pyrimidin-4-yl]-4-pyridyl]oxy]-3-fluorophenyl] 2-ethylbenzenesulfonamide]	≤ 10 nM
N[C@H]1CC[C@H](Nc2nccc(-c3cnccc3Oc3ccc(NS(=O)(=O)c4ccccc4-c4ccccc4)cc3F)n2)CC1 [Compound 72, N-[4-[[3-[2-(1r,4r)[(4-Aminocyclohexyl)amino]pyrimidin-4-yl]-4-pyridyl]oxy]-3-fluorophenyl] 2-phenylbenzenesulfonamide]	11 to 100 nM
C#Cc1ccccc1S(=O)(=O)Nc1ccc(Oc2ccncc2-c2ccnc(N[C@H]3CC[C@H](N)CC3)n2)c(F)c1 [Compound 73, N-[4-[[3-[2-(1r,4r)[(4-Aminocyclohexyl)amino]pyrimidin-4-yl]-4-pyridyl]oxy]-3-fluorophenyl] 2-ethynylbenzenesulfonamide]	11 to 100 nM
N[C@H]1CC[C@H](Nc2nccc(-c3cnccc3Oc3ccc(NS(=O)(=O)C45CC6CC(CC(C6)C4)C5)cc3F)n2)CC1 [Compound 74, N-[4-[[3-[2-(1r,4r)[(4-Aminocyclohexyl)amino]pyrimidin-4-yl]-4-pyridyl]oxy]-3-fluorophenyl] adamant-1-ylsulfonamide]	> 5000 nM
N[C@H]1CC[C@H](Nc2nccc(-c3cnccc3Oc3ccc(NS(=O)(=O)C4CC5CCC4C5)cc3F)n2)CC1 (stereo partly drawn) [Compound 75, N-[4-[[3-[2-(1r,4r)[(4-Aminocyclohexyl)amino]pyrimidin-4-yl]-4-pyridyl]oxy]-3-fluorophenyl] [R,S]-exo-norborn-2-ylsulfonamide]	100 to 1000 nM
CN(C)[C@H]1CC[C@H](Nc2nccc(-c3cnccc3Oc3ccc(NC(=O)c4ccccc4Cl)cc3F)n2)CC1 [Compound 76, N-[4-[[3-[2-[(1r,4r)(4-(N,N-Dimethylamino)cyclohexyl)amino]pyrimidin-4-yl]-4-pyridyl]oxy]-3-fluorophenyl] 2-chlorobenzamide]	100 to 1000 nM
CN1CCC(Nc2nccc(-c3cnccc3Oc3ccc(NS(=O)(=O)c4ccccc4Cl)cc3F)n2)CC1 [Compound 77, N-[3-Fluoro-4-[[3-[2-[[N-methylpiperid-4-yl]amino]pyrimidin-4-yl]-4-pyridyl]oxy]phenyl] 2-chlorobenzenesulfonamide]	11 to 100 nM
CN(C)[C@H]1CC[C@H](Nc2nccc(-c3cnccc3Oc3ccc(NS(=O)(=O)c4ccccc4Cl)cc3F)n2)CC1 [Compound 78, N-[4-[[3-[2-[(1r,4r)(4-(N,N-Dimethylamino)cyclohexyl)amino]pyrimidin-4-yl]-4-pyridyl]oxy]-3-fluorophenyl] 2-chlorobenzenesulfonamide]	11 to 100 nM
N[C@H]1CC[C@H](Nc2nccc(-c3cnccc3Oc3ccc(NS(=O)(=O)c4ccccc4Cl)c(F)c3)n2)CC1 [Compound 79, N-[4-[[3-[2-[(1r,4r)(4-Aminocyclohexyl)amino]pyrimidin-4-yl]-4-pyridyl]oxy]-2-fluorophenyl] 2-chlorobenzenesulfonamide]	≤ 10 nM
N[C@H]1CC[C@H](Nc2nccc(-c3cnccc3Oc3ccc(NS(=O)(=O)c4ccc(CO)cc4F)cc3F)n2)CC1 [Compound 81]	100 to 1000 nM
N[C@H]1CC[C@H](Nc2nccc(-c3cnccc3Oc3ccc(NS(=O)(=O)c4ccc(CO)cc4F)c(F)c3)n2)CC1 [Compound 82, N-82[4-[[3-[2-(1r,4r)[(4-Aminocyclohexyl)amino]pyrimidin-4-yl]-4-pyridyl]oxy]-2-fluorophenyl] 2-fluoro-4-(hydroxymethyl)benzenesulfonamide]	100 to 1000 nM
N[C@H]1CC[C@H](Nc2nccc(-c3cnccc3Oc3ccc(NS(=O)(=O)c4ccc(CCO)cc4F)cc3F)n2)CC1 [Compound 83, N-[4-[[3-[2-(1r,4r)[(4-Aminocyclohexyl)amino]pyrimidin-4-yl]-4-pyridyl]oxy]-3-fluorophenyl] 2-fluoro-4-(2-hydroxyethyl)benzenesulfonamide]	100 to 1000 nM
N[C@H]1CC[C@H](Nc2nccc(-c3cnccc3Oc3ccc(NS(=O)(=O)c4ccc(CCO)cc4F)c(F)c3)n2)CC1 [Compound 84, N-[4-[[3-[2-(1r,4r)[(4-Aminocyclohexyl)amino]pyrimidin-4-yl]-4-pyridyl]oxy]-2-fluorophenyl] 2-fluoro-4-(2-hydroxyethyl)benzenesulfonamide]	100 to 1000 nM
